In patent US6245778A, “1,6-naphthyridine anti-convulsants” (SmithKline Beecham p.l.c., priority 1997, dated 2001):
Structures can show the parent of a compound that is named as a salt.

test system: electrically-induced seizures (tonic seizure threshold, CC50); experiment: Maximal electroshock seizure (MEST) threshold test; format: in vivo; conditions: mice, 10 mg/kg p.o., suspension in methyl cellulose, one hour post dosing

| Compound | increase in seizure threshold (CC50) compared to control [%] |
| --- | --- |
| COc1ccc(C(=O)Nc2cnc3c(c2)CN(C)CC3)cc1Br.Cl [Example 1, N-(6-Methyl-5,6,7,8-tetrahydro[1,6]naphthyridin-3-yl)-3-bromo-4-methoxybenzamide, monohydrochloride] | 177 |
| CN1CCc2ncc(NC(=O)c3ccccc3)cc2C1 [Example 2, N-(6-Methyl-5,6,7,8-tetrahydro[1,6]naphthyridin-3-yl)-benzamide] | 97 |
| CCOc1ccc(C(=O)Nc2cnc3c(c2)CN(C)CC3)cc1 [Example 5, N-(6-Methyl-5,6,7,8-tetra hydro[1,6]naphthyridin-3-yl)-4-ethoxybenzamide, monohydrochloride] | 106 |

biological target: novel receptor obtainable from rat forebrain tissue; experiment: Radioligand binding assay, displacement of [3H]-Compound A from rat forebrain tissue; conditions: [3H]-Compound A 20 nM, room temperature, 1 hour
Description: The affinity of test compounds to the novel receptor site is assessed as follows. Whole forebrain tissue is obtained from rats. The tissue is first homogenised in buffer (usually 50 mM Tris/HCl, pH 7.4). The homogenised tissue is washed by centrifugation and resuspension in the same buffer, then stored at -70° C. until used. […] The final concentration of [3H]-Compound A in the mixture is usually 20 nM. The mixture is incubated at room temperature for 1 hour. [3H]-Compound A bound to the tissue is then separated from unbound [3H]-Compound A by filtration through Whatman GF/B glass fibre filters. The filters are then washed rapidly with ice-cold buffer. The amount of radioactivity bound to the tissue trapped on the filters is measured by addition of liquid scintillation cocktail to the filters followed by counting in a liquid scintillation counter. In order to determine the amount of "specific" binding of [3H]-Compound A, parallel assays are carried out as above in which [3H]-Compound A and tissue are incubated together in the presence of unlabelled Compound A (usually 3 μM). The amount of binding of [3H]-Compound A remaining in the presence of this unlabelled compound is defined as "non-specific" binding. This amount is subtracted from the total amount of [3H]-Compound A binding (i.e. that present in the absence of unlabelled compound) to obtain the amount of "specific" binding of [3H]-Compound A to the novel site. The affinity of the binding of test compounds to the novel site can be estimated by incubating together [3H]-Compound A and tissue in the presence of a range of concentrations of the compound to be tested. The decrease in the level of specific [3H]Compound A binding as a result of competition by increasing concentrations of the compound under test is plotted graphically, and non-linear regression analysis of the resultant curve is used to provide an estimate of compound affinity in terms of pKi value.

| in vitro binding affinity, pKi | Compound |
| --- | --- |
| > 8.0 | CCOc1ccc(C(=O)Nc2cnc3c(c2)CN(C)CC3)cc1[N+](=O)[O-].Cl [Example 20, N-(6-Methyl-5,6,7,8-tetrahydro[1,6]naphthyridin-3-yl)-4-ethoxy-3-nitrobenzamide hydrochloride] |
| > 8.0 | COc1ccc(C(=O)Nc2cnc3c(c2)CN(C)CC3)cc1I.Cl [Example 28, N-(6-Methyl-5,6,7,8-tetrahydro[1,6]naphthyridin-3-yl)-3-iodo-4-methoxybenzamide hydrochloride] |
| > 8.0 | CCCOc1ccc(C(=O)Nc2cnc3c(c2)CN(C)CC3)cc1C#N [Example 30, N-(6-Methyl-5,6,7,8-tetrahydro[1,61naphthyridin-3yl)-3-cyano-4-n-propyloxybenzamide, hydrochloride] |
| > 8.0 | CC(C)Oc1ccc(C(=O)Nc2cnc3c(c2)CN(C)CC3)cc1Cl.Cl [Example 33, N-(6-Methyl-5,6,7,8-tetrahydro[1,6]naphthyridin-3-yl)-3-chloro-4-iso-propyloxybenzamide, hydrochloride] |
| > 8.0 | CC(C)Oc1ccc(C(=O)Nc2cnc3c(c2)CN(C)CC3)cc1C(F)(F)F.Cl [Example 36, N-(6-Methyl-5,6,7,8-tetrahydro[1,6]naphthyridin-3-yl)-4-iso-propyloxy-3-trifluoromethylbenzamide, hydrochloride] |

More lines, now with the values behind:

| Compound | in vitro binding affinity, pKi |
| --- | --- |
| COc1ccc(C(=O)Nc2cnc3c(c2)CN(C)CC3)cc1Br.Cl [Example 1, N-(6-Methyl-5,6,7,8-tetrahydro[1,6]naphthyridin-3-yl)-3-bromo-4-methoxybenzamide, monohydrochloride] | > 8.0 |
| COc1cc(C(C)(C)C)ccc1C(=O)Nc1cnc2c(c1)CN(C)CC2.Cl [Example 3, N-(6-Methyl-5,6,7,8-tetrahydro[1,6]naphthyridin-3-yl)-2-methoxy-4-t-butylbenzamide, monohydrochloride] | > 8.0 |
| CN1CCc2ncc(NC(=O)c3ccc(C(C)(C)C)cc3)cc2C1 [Example 10, N-(6-Methyl-5,6,7,8-tetrahydrol[1,6]naphthyridin-3-yl)-4-t-butylbenzamide, monihydrochloride] | > 8.0 |
| CCOc1ccc(C(=O)Nc2cnc3c(c2)CN(C)CC3)cc1Br [Example 11, N-(6-Methyl-5,6,7 ,8-tetrahydro[1,6]naphthyridin-3-yl)-3-bromo-4-ethoxybenzamide, monohydrochloride] | > 8.0 |
| CC(C)Oc1ccc(C(=O)Nc2cnc3c(c2)CN(C)CC3)cc1Br.Cl [Example 12, N-(6-Methyl-5,6,7,8-tetrahydro[1,6]naphthyridin-3-yl)-3-bromo-4-iso-propyloxybenzamide, monohydrochloride] | > 8.0 |
